Data: paper PMC12285096, “Tirzepatide mitigates Stroke-Induced Blood-Brain barrier disruption by modulating Claudin-1 and C/EBP-α pathways” (Molecular Medicine, 2025)

Assays:
HBMVECs = test: FITC-dextran permeation across OGD/R-challenged HBMVECs; type: cell-based, human
Experimental: HBMVECs were sourced from ATCC (USA). These cells were cultivated in a medium specifically designed for endothelial cultures, enriched with 10% FBS, and maintained in an incubator set at a temperature of 37 °C with 5% CO2. For OGD/R modeling, the culture medium was replaced with a serum-free, glucose-free medium, and then it was placed in a hypoxic environment (1% O2, 5% CO2, 94% N2) at a 37 °C incubator for 10 h. After 10 h, the normal medium containing serum was added, and the normal oxygen supply was restored. The cells were then kept in a 37 °C constant temperature incubator for 24 h of reoxygenation. To silence C/EBP-α, HBMVECs were transduced with adenovirus harboring a short hairpin RNA (shRNA) specifically designed to knock down C/EBP-α (Ad-viral sh-C/EBP-α) for 48 h. A serum-free medium was used to dilute FITC-dextran to various concentrations for the establishment of a calibration curve. Subsequently, HBMVECs were cultured in the upper section of the Transwell setup. Thereafter, 100 µL of a 1 mg/mL FITC-conjugated dextran solution was added to the upper section and allowed to rest for 1 h in a shielded environment at 37 °C with 5% CO2. Post incubation, 100 µL of fluid was drawn from the lower section, and the luminescence intensity of the fluid in the lower section was quantified using a luminescence photometer (494/520 nm). Regarding the calibration curve and the observed luminescence intensity, the permeation level of FITC-dextran across the Transwell chamber was computed (µg/mL).

MCAO mice = test: TTC staining, infarct volume in MCAO mice; type: in vivo, mouse; details: MCAO + TZP mice, 10 nmol/kg i.p., MCAO mice 38.5 ± 4.2%, mean ± SD, Fig. 1B
Claudin-1 = Claudin-1 expression in mouse cortex (RT-PCR, immunostaining); type: in vivo; details: for Claudin-1 levels (mRNA): C/EBP-α experiment, Fig. 5C; for Claudin-1 expressions in cortex tissue (mRNA, protein by immunostaining): Fig. 3A, B
Experimental: Mouse brain cortex samples were traditionally fixed in a 10% formaldehyde solution, embedded in paraffin, sectioned, and then dehydrated. Endogenous peroxidase activity was quenched by incubating the sections with a 3% hydrogen peroxide solution for 30 min. Antigen retrieval was carried out using ethylenediaminetetraacetic acid (EDTA) under pressure. After sealing for 30 min, slides were incubated overnight at 4 °C with primary antibodies specific for Claudin-1 (Abcam, USA), diluted at a ratio of 1:400. This incubation period was extended to ensure thorough binding. Subsequently, the slides were washed and incubated with secondary antibodies (1:400, Abcam, USA) for 15 min. Finally, the slides were developed using a DAB chromogenic substrate system, counterstained with hematoxylin, differentiated with an ethanol solution containing hydrochloric acid, subjected to a bluing step with running tap water, rinsed with deionized water, dehydrated, and covered with a protective cover slip. Visual documentation was obtained using a microscope (Zeiss, Germany). 1 mL of RNAiso Plus solution was added to the pulverized rodent cerebral cortex samples or cellular material. Following complete homogenization, the liquid fraction was extracted after high-speed centrifugation. The overall RNA pellet was then washed with 75% ethanol, and the RNA was subsequently harvested for reverse transcription. These specific procedures were carried out in accordance with the instructions provided in the PrimeScript RT reagent Kit (TaKaRa, Japan). Real-time PCR detection was performed following the experimental protocols of the Applied Biosystems 7300 instrument. Gene expression levels were determined based on cycle threshold counts.

C/EBP-α = C/EBP-α expression in OGD/R-stimulated HBMVECs (real-time PCR, western blot); type: cell-based, human; details: OGD/R + 50 and 100 nM TZP vs. OGD/R, Fig. 8A, B
Experimental: 1 mL of RNAiso Plus solution was added to the pulverized rodent cerebral cortex samples or cellular material. Following complete homogenization, the liquid fraction was extracted after high-speed centrifugation. The overall RNA pellet was then washed with 75% ethanol, and the RNA was subsequently harvested for reverse transcription. These specific procedures were carried out in accordance with the instructions provided in the PrimeScript RT reagent Kit (TaKaRa, Japan). Real-time PCR detection was performed following the experimental protocols of the Applied Biosystems 7300 instrument. Gene expression levels were determined based on cycle threshold counts. Claudin-1 and C/EBP-α were analyzed in brain homogenates (right hemisphere: Sham, MCAO, MCAO + TZP) and HBMVECs (Control, […] lysis solution, composed of 1% protease inhibitor in RIPA buffer (Sigma-Aldrich, R0278), was introduced to samples, which were homogenized over ice for 30 min. The homogenate was centrifuged at 13,500 rpm for 10 min at 4 °C. Protein was quantified using the BCA assay kit (Sigma-Aldrich, BCA1), and 50 μg protein/lane was separated on 10% SDS-PAGE and transferred to PVDF in electrophoresis buffer at 200 mA for 2 h. The membrane was blocked with 5% skim milk in TBST for 1 h. […] Bands were detected via ECL (Bio-Rad, 1705061), quantified with ImageJ, and normalized to GAPDH. […]

For CC[C@H](C)[C@H](NC(=O)[C@H](CC(C)C)NC(=O)[C@H](Cc1c[nH]c2ccccc12)NC(=O)[C@H](CCC(N)=O)NC(=O)[C@@H](NC(=O)[C@H](Cc1ccccc1)NC(=O)[C@H](C)NC(=O)[C@H](CCCCNC(=O)COCCOCCNC(=O)COCCOCCNC(=O)CC[C@H](NC(=O)CCCCCCCCCCCCCCCCCCC(=O)O)C(=O)O)NC(=O)[C@H](CCC(N)=O)NC(=O)[C@H](C)NC(=O)[C@@H](NC(=O)[C@H](CCCCN)NC(=O)[C@H](CC(=O)O)NC(=O)[C@H](CC(C)C)NC(=O)C(C)(C)NC(=O)[C@@H](NC(=O)[C@H](CO)NC(=O)[C@H](Cc1ccc(O)cc1)NC(=O)[C@H](CC(=O)O)NC(=O)[C@H](CO)NC(=O)[C@@H](NC(=O)[C@H](Cc1ccccc1)NC(=O)[C@@H](NC(=O)CNC(=O)[C@H](CCC(=O)O)NC(=O)C(C)(C)NC(=O)[C@@H](N)Cc1ccc(O)cc1)[C@@H](C)O)[C@@H](C)O)[C@@H](C)CC)[C@@H](C)CC)C(C)C)C(=O)N[C@@H](C)C(=O)NCC(=O)NCC(=O)N1CCC[C@H]1C(=O)N[C@@H](CO)C(=O)N[C@@H](CO)C(=O)NCC(=O)N[C@@H](C)C(=O)N1CCC[C@H]1C(=O)N1CCC[C@H]1C(=O)N1CCC[C@H]1C(=O)N[C@@H](CO)C(N)=O [TZP, Tirzepatide], the “FITC concentrations in the lower chamber (FITC-dextran permeation)” value (from here on “FITC concentrations in the lower chamber”) (HBMVECs; OGD/R + 50 nM TZP, 24 h, control 0.41, OGD/R 1.15, Fig. 6A) was 0.83 mg/mL, the “FITC concentrations in the lower chamber” value (HBMVECs; OGD/R + 100 nM TZP, 24 h, control 0.41, OGD/R 1.15, Fig. 6A) was 0.57 mg/mL and the “FITC concentrations in the lower chamber” value (HBMVECs; sh-C/EBP-α experiment, OGD/R + TZP (100 nM), control 0.42, OGD/R 1.03, Fig. 9B) was 0.61 mg/mL. For the same compound, the “FITC concentrations in the lower chamber” value (HBMVECs; sh-C/EBP-α experiment, OGD/R + sh-C/EBP-α + TZP (100 nM), control 0.42, OGD/R 1.03, Fig. 9B) was 0.93 mg/mL, the “Infarct volume (% of the ipsilateral hemisphere)” value (MCAO mice) was 18.7 ± 3.1% and the “Claudin-1 levels (mRNA)” value (Claudin-1; MCAO + C/EBP-α-/- + TZP vs. MCAO + TZP) was “strikingly repressed”. The “Claudin-1 levels (mRNA)” value (Claudin-1; MCAO + TZP WT mice vs. MCAO) was “sharply enhanced”, the “Claudin-1 expressions in cortex tissue (mRNA, protein by immunostaining)” value (Claudin-1; MCAO + TZP vs. MCAO (markedly diminished), 10 nmol/kg i.p. weekly, 8 weeks) was “strikingly enhanced” and the “Claudin-1 expressions in cortex tissue (mRNA, protein by immunostaining)” value (Claudin-1; TZP group (sham-operated, 10 nmol/kg i.p. weekly, 8 weeks) vs. Sham) was “remarkably enhanced”. The “C/EBP-α levels (mRNA, protein)” value (C/EBP-α) was “largely promoted”.
